Literature values as cited in paper PMC8513935.

Columns and labels:
[1] = derived by the authors as gas->solvent minus gas->water (a hypothetical dry solvent; the ESI), not a two-phase measurement
[2] = experimental, compiled by the authors from the literature (the ESI cites the sources)
[3] = log P octanol/water from commercial databases, averaged (the ESI); details: Octanol (wet), 25 C

c1ccc2c(c1)-c1cccc3cccc-2c13
log K of transfer, water to solvent ([1]; 1,2-Dichloroethane, 25 C): 6.08 log10 K
log K of transfer, water to solvent ([1]; 2-Methylpropan-1-ol, 25 C): 4.66 log10 K
log K of transfer, water to solvent ([1]; 3-Methylbutan-1-ol, 25 C): 4.81 log10 K
log K of transfer, water to solvent ([1]; Acetonitrile, 25 C): 5.31 log10 K
log K of transfer, water to solvent ([1]; Benzene, 25 C): 6.02 log10 K
log K of transfer, water to solvent ([1]; Butan-1-ol, 25 C): 4.96 log10 K
log K of transfer, water to solvent ([1]; Butan-2-ol, 25 C): 4.81 log10 K
log K of transfer, water to solvent ([1]; CCl4, 25 C): 5.83 log10 K
log K of transfer, water to solvent ([1]; Chloroform, 25 C): 6.12 log10 K
log K of transfer, water to solvent ([1]; Cyclohexane, 25 C): 5.07 log10 K
log K of transfer, water to solvent ([1]; Di-n-butyl ether, 25 C): 5.41 log10 K
log K of transfer, water to solvent ([1]; Diethyl Ether, 25 C): 5.64 log10 K
log K of transfer, water to solvent ([1]; Ethanol, 25 C): 4.89 log10 K
log K of transfer, water to solvent ([1]; Heptan-1-ol, 25 C): 5.28 log10 K
log K of transfer, water to solvent ([1]; Hexadecane, 25 C): 5.38 log10 K
log K of transfer, water to solvent ([1]; Hexan-1-ol, 25 C): 5.13 log10 K
log K of transfer, water to solvent ([1]; Hexane, 25 C): 4.98 log10 K
log K of transfer, water to solvent ([1]; Methanol, 25 C): 4.74 log10 K
log K of transfer, water to solvent ([1]; Octan-1-ol(dry), 25 C): 5.17 log10 K
log K of transfer, water to solvent ([1]; Pentan-1-ol, 25 C): 5.05 log10 K
log K of transfer, water to solvent ([1]; Propan-1-ol, 25 C): 4.87 log10 K
log K of transfer, water to solvent ([1]; Propan-2-ol, 25 C): 4.72 log10 K
log K of transfer, water to solvent ([1]; Toluene, 25 C): 5.94 log10 K
log K of transfer, gas to solvent ([2]; 1,2-Dichloroethane, 25 C): 9.52 log10 K
log K of transfer, gas to solvent ([2]; 2-Methylpropan-1-ol, 25 C): 8.1 log10 K
log K of transfer, gas to solvent ([2]; 3-Methylbutan-1-ol, 25 C): 8.25 log10 K
log K of transfer, gas to solvent ([2]; Acetonitrile, 25 C): 8.75 log10 K
log K of transfer, gas to solvent ([2]; Benzene, 25 C): 9.46 log10 K
log K of transfer, gas to solvent ([2]; Butan-1-ol, 25 C): 8.4 log10 K
log K of transfer, gas to solvent ([2]; Butan-2-ol, 25 C): 8.25 log10 K
log K of transfer, gas to solvent ([2]; CCl4, 25 C): 9.27 log10 K
log K of transfer, gas to solvent ([2]; Chloroform, 25 C): 9.56 log10 K
log K of transfer, gas to solvent ([2]; Cyclohexane, 25 C): 8.51 log10 K
log K of transfer, gas to solvent ([2]; Di-n-butyl ether, 25 C): 8.84 log10 K
log K of transfer, gas to solvent ([2]; Diethyl Ether, 25 C): 9.08 log10 K
log K of transfer, gas to solvent ([2]; Ethanol, 25 C): 8.33 log10 K
log K of transfer, gas to solvent ([2]; Heptan-1-ol, 25 C): 8.72 log10 K
log K of transfer, gas to solvent ([2]; Hexadecane, 25 C): 8.82 log10 K
log K of transfer, gas to solvent ([2]; Hexan-1-ol, 25 C): 8.56 log10 K
log K of transfer, gas to solvent ([2]; Hexane, 25 C): 8.41 log10 K
log K of transfer, gas to solvent ([2]; Methanol, 25 C): 8.18 log10 K
log K of transfer, gas to solvent ([2]; Octan-1-ol, 25 C): 8.61 log10 K
log K of transfer, gas to solvent ([2]; Pentan-1-ol, 25 C): 8.49 log10 K
log K of transfer, gas to solvent ([2]; Propan-1-ol, 25 C): 8.31 log10 K
log K of transfer, gas to solvent ([2]; Propan-2-ol, 25 C): 8.15 log10 K
log K of transfer, gas to solvent ([2]; Toluene, 25 C): 9.38 log10 K
log K of transfer, gas to solvent ([2]; Water, 25 C): 3.44 log10 K
log K of transfer, water to solvent [3]: 5.16 log10 K

CCCC(C)C
log K of transfer, water to solvent ([1]; 1,2-Dichloroethane, 25 C): 4.18 log10 K
log K of transfer, water to solvent ([1]; Acetone, 25 C): 4.08 log10 K
log K of transfer, water to solvent ([1]; Acetonitrile, 25 C): 3.66 log10 K
log K of transfer, water to solvent ([1]; Butan-1-ol, 25 C): 4.13 log10 K
log K of transfer, water to solvent ([1]; Butanone, 25 C): 4.23 log10 K
log K of transfer, water to solvent ([1]; Butyronitrile, 25 C): 4.05 log10 K
log K of transfer, water to solvent ([1]; CCl4, 25 C): 4.65 log10 K
log K of transfer, water to solvent ([1]; Chlorobenzene, 25 C): 4.62 log10 K
log K of transfer, water to solvent ([1]; Chloroform, 25 C): 4.55 log10 K
log K of transfer, water to solvent ([1]; Cyclohexanone, 25 C): 4.14 log10 K
log K of transfer, water to solvent ([1]; Dichloromethane, 25 C): 4.43 log10 K
log K of transfer, water to solvent ([1]; Ethanol, 25 C): 4 log10 K
log K of transfer, water to solvent ([1]; Hexadecane, 25 C): 4.34 log10 K
log K of transfer, water to solvent ([1]; Hexane, 25 C): 4.66 log10 K
log K of transfer, water to solvent ([1]; Methanol, 25 C): 3.79 log10 K
log K of transfer, water to solvent ([1]; Pentan-1-ol, 25 C): 4.26 log10 K
log K of transfer, water to solvent ([1]; Perfluoroalkane, 25 C): 3.65 log10 K
log K of transfer, water to solvent ([1]; Propan-1-ol, 25 C): 3.99 log10 K
log K of transfer, water to solvent ([1]; Propan-2-ol, 25 C): 4 log10 K
log K of transfer, water to solvent ([1]; Propionitrile, 25 C): 3.92 log10 K
log K of transfer, water to solvent ([1]; Tetrahydrofuran, 25 C): 4.54 log10 K
log K of transfer, water to solvent ([1]; Toluene, 25 C): 4.49 log10 K
log K of transfer, gas to solvent ([2]; 1,2-Dichloroethane, 25 C): 2.34 log10 K
log K of transfer, gas to solvent ([2]; Acetonitrile, 25 C): 1.82 log10 K
log K of transfer, gas to solvent ([2]; Butan-1-ol, 25 C): 2.29 log10 K
log K of transfer, gas to solvent ([2]; Butanone, 25 C): 2.39 log10 K
log K of transfer, gas to solvent ([2]; Butyronitrile, 25 C): 2.21 log10 K
log K of transfer, gas to solvent ([2]; CCl4, 25 C): 2.81 log10 K
log K of transfer, gas to solvent ([2]; Chlorobenzene, 25 C): 2.78 log10 K
log K of transfer, gas to solvent ([2]; Chloroform, 25 C): 2.71 log10 K
log K of transfer, gas to solvent ([2]; Cyclohexanone, 25 C): 2.3 log10 K
log K of transfer, gas to solvent ([2]; Dichloromethane, 25 C): 2.59 log10 K
log K of transfer, gas to solvent ([2]; Ethanol, 25 C): 2.16 log10 K
log K of transfer, gas to solvent ([2]; Hexadecane, 25 C): 2.5 log10 K
log K of transfer, gas to solvent ([2]; Hexane, 25 C): 2.82 log10 K
log K of transfer, gas to solvent ([2]; Methanol, 25 C): 1.95 log10 K
log K of transfer, gas to solvent ([2]; Pentan-1-ol, 25 C): 2.42 log10 K
log K of transfer, gas to solvent ([2]; Perfluoroalkane, 25 C): 1.81 log10 K
log K of transfer, gas to solvent ([2]; Propan-1-ol, 25 C): 2.15 log10 K
log K of transfer, gas to solvent ([2]; Propan-2-ol, 25 C): 2.16 log10 K
log K of transfer, gas to solvent ([2]; Propanone, 25 C): 2.24 log10 K
log K of transfer, gas to solvent ([2]; Propionitrile, 25 C): 2.08 log10 K
log K of transfer, gas to solvent ([2]; Tetrahydrofuran, 25 C): 2.7 log10 K
log K of transfer, gas to solvent ([2]; Toluene, 25 C): 2.65 log10 K
log K of transfer, gas to solvent ([2]; Water, 25 C): -1.84 log10 K
log K of transfer, water to solvent [3]: 3.73 log10 K

CCCCCCCO
log K of transfer, water to solvent ([1]; 1,2-Dichloroethane, 25 C): 1.89 log10 K
log K of transfer, water to solvent ([1]; Benzene, 25 C): 1.93 log10 K
log K of transfer, water to solvent ([1]; Butyronitrile, 25 C): 2.24 log10 K
log K of transfer, water to solvent ([1]; CCl4, 25 C): 1.57 log10 K
log K of transfer, water to solvent ([1]; Chlorobenzene, 25 C): 1.86 log10 K
log K of transfer, water to solvent ([1]; Chloroform, 25 C): 2.41 log10 K
log K of transfer, water to solvent ([1]; Cyclohexane, 25 C): 1.09 log10 K
log K of transfer, water to solvent ([1]; Heptan-1-ol, 25 C): 2.71 log10 K
log K of transfer, water to solvent ([1]; Hexadecane, 25 C): 1.02 log10 K
log K of transfer, water to solvent ([1]; Hexan-1-ol, 25 C): 2.83 log10 K
log K of transfer, water to solvent ([1]; Hexane, 25 C): 1.01 log10 K
log K of transfer, water to solvent ([1]; Methanol, 25 C): 2.48 log10 K
log K of transfer, water to solvent ([1]; Toluene, 25 C): 1.86 log10 K
log K of transfer, gas to solvent ([2]; 1,2-Dichloroethane, 25 C): 4.98 log10 K
log K of transfer, gas to solvent ([2]; Benzene, 25 C): 5.02 log10 K
log K of transfer, gas to solvent ([2]; Butyronitrile, 25 C): 5.33 log10 K
log K of transfer, gas to solvent ([2]; CCl4, 25 C): 4.66 log10 K
log K of transfer, gas to solvent ([2]; Chlorobenzene, 25 C): 4.95 log10 K
log K of transfer, gas to solvent ([2]; Chloroform, 25 C): 5.5 log10 K
log K of transfer, gas to solvent ([2]; Cyclohexane, 25 C): 4.18 log10 K
log K of transfer, gas to solvent ([2]; Heptan-1-ol, 25 C): 5.8 log10 K
log K of transfer, gas to solvent ([2]; Hexadecane, 25 C): 4.11 log10 K
log K of transfer, gas to solvent ([2]; Hexan-1-ol, 25 C): 5.92 log10 K
log K of transfer, gas to solvent ([2]; Hexane, 25 C): 4.1 log10 K
log K of transfer, gas to solvent ([2]; Methanol, 25 C): 5.57 log10 K
log K of transfer, gas to solvent ([2]; Toluene, 25 C): 4.95 log10 K
log K of transfer, gas to solvent ([2]; Water, 25 C): 3.09 log10 K
log K of transfer, water to solvent [3]: 2.62 log10 K
